Laboratory results reported in patent publication US20240246964A1 (Arbutus Biopharma Corporation, priority 2021, published 2024).

Each compound was assayed against human PD-L1 (Homo sapiens (Human), UniProt Q9NZQ7) (assay: T cell activation luciferase reporter cell culture system (T Cell Activation Assay)). Conditions: luciferase reporter assay; PD-L1 aAPC/CHO-K1 cells with PD-1 effector Jurkat T cells.
Type: cell-based

Chain of human PD-L1 (Q9NZQ7 19-290): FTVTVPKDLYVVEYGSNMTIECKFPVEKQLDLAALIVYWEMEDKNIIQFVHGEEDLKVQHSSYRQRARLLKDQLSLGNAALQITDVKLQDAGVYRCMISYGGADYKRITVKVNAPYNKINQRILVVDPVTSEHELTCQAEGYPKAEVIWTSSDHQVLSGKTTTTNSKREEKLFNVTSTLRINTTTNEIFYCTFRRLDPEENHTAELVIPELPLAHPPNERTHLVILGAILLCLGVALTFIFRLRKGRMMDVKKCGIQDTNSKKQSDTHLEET

Compound | EC50
COc1nc(-c2cncc(-c3cccc(NC(=O)c4cn(C)c(=O)n(C)c4=O)c3Cl)c2Cl)ccc1CNC[C@H](C)O [Compound 729, (S)—N-(2-Chloro-3-(4′-chloro-5-(((2-hydroxypropyl)amino)methyl)-6-methoxy-[2,3′-bipyridin]-5′-yl)phenyl)-1,3-dimethyl-2,4-dioxo-1,2,3,4-tetrahydropyrimidine-5-carboxamide] | 652 nM
COc1nc(-c2cccc(-c3ccnc(-c4cc(OC)c5nc(CNC[C@@H]6CCC(=O)N6)nn5c4)c3Cl)c2Cl)ccc1CNC[C@@H]1CCC(=O)N1 [Example 258, (S)-5-((((6-(2-chloro-3-(3-chloro-2-(8-methoxy-2-(((((S)-5-oxopyrrolidin-2-yl)methyl)amino)methyl)-[1,2,4]triazolo[1,5-a]pyridin-6-yl)pyridin-4-yl)phenyl)-2-methoxypyridin-3-yl)methyl)amino)methyl)pyrrolidin-2-one] | 75.4 nM
COc1cc(-c2nccc(-c3cccc(-c4ccc(CN5CC6(C5)CN(C(C)=O)C6)c(OC)n4)c3C(F)(F)F)c2Cl)ccc1CN1CC2(C1)CN(C(C)=O)C2 [Example 577, 1-(6-((6-(3-(2-(4-((6-Acetyl-2,6-diazaspiro[3.3]heptan-2-yl)methyl)-3-methoxyphenyl)-3-chloropyridin-4-yl)-2-(trifluoromethyl)phenyl)-2-methoxypyridin-3-yl)methyl)-2,6-diazaspiro[3.3]heptan-2-yl)ethan-1-one] | ≥ 10000 nM
COc1cc(-c2nccc(-c3cccc(-c4ccc(CN5CC6(C5)CN(C(C)=O)C6)c(OC)n4)c3C)c2Cl)ccc1CN1CC2(C1)CN(C(C)=O)C2 [Example 409, 1-(6-((6-(3-(2-(4-((6-acetyl-2,6-diazaspiro[3.3]heptan-2-yl)methyl)-3-methoxyphenyl)-3-chloropyridin-4-yl)-2-methylphenyl)-2-methoxypyridin-3-yl)methyl)-2,6-diazaspiro[3.3]heptan-2-yl)ethan-1-one] | 274 nM

Compounds with a lower EC50, results first:

EC50 | Compound
42.6 nM | COc1cc(-c2nccc(-c3cccc(-c4ccc(CNC5CCN(CC(F)F)CC5)c(OC)n4)c3Cl)c2Cl)ccc1CNC1CCN(CC(F)F)CC1 [Example 420, N-((6-(2-Chloro-3-(3-chloro-2-(4-(((1-(2,2-difluoroethyl)piperidin-4-yl)amino)methyl)-3-methoxyphenyl)pyridin-4-yl)phenyl)-2-methoxypyridin-3-yl)methyl)-1-(2,2-difluoroethyl)piperidin-4-amine]
44.9 nM | COc1nc(-c2cccc(-c3ccnc(-c4ccc(CNC5CCN(CCO)CC5)c(OC(F)F)c4)c3Cl)c2Cl)ccc1CNC1CCN(CCO)CC1 [Example 620, 2-(4-(((6-(2-Chloro-3-(3-chloro-2-(3-(difluoromethoxy)-4-(((1-(2-hydroxyethyl)piperidin-4-yl)amino)methyl)phenyl)pyridin-4-yl)phenyl)-2-methoxypyridin-3-yl)methyl)amino)piperidin-1-yl)ethan-1-ol]
53.9 nM | COc1cc(-c2nccc(-c3cccc(-c4ccc5c(OC)c(CNC[C@@H]6CCC(=O)N6)cc(Cl)c5n4)c3Cl)c2Cl)cc(F)c1CNC[C@@H]1CCC(=O)N1 [Example 236, (S)-5-((((8-Chloro-2-(2-chloro-3-(3-chloro-2-(3-fluoro-5-methoxy-4-(((((S)-5-oxopyrrolidin-2-yl)methyl)amino)methyl)phenyl)pyridin-4-yl)phenyl)-5-methoxyquinolin-6-yl)methyl)amino)methyl)pyrrolidin-2-one]
30.3 nM | COc1cc(-c2nccc(-c3cccc(-c4ccc(CN5CC6(CNC(=O)N6)C5)c(OC)n4)c3Cl)c2Cl)ccc1CNC1CCN(C(C)=O)CC1 [Example 526, 2-((6-(3-(2-(4-(((1-Acetylpiperidin-4-yl)amino)methyl)-3-methoxyphenyl)-3-chloropyridin-4-yl)-2-chlorophenyl)-2-methoxypyridin-3-yl)methyl)-2,5,7-triazaspiro[3.4]octan-6-one]
